Test results: patent US20210169113A1, “COMPOSITION FOR IMPROVING INTESTINAL FLORA” (Hosoda SHC Co., Ltd., priority 2018, published 2021)
Like-named read-outs stand apart in the source and are kept apart here.

Assays:
[1] = mouse, in vivo
Experimental: (§1) Seven mice were fed ad libitum with the test diet in which 0.5% of gnemonoside A separated and purified in Example 2 was included in the high-fat diet in an amount of 5 g/mouse/day for 14 consecutive weeks, and then 10 mg of their excrement was collected. The excrement thus collected and 10 mg of the excrement collected in Test example 4 were each added with methanol (acetonitrile aqueous solution), suspended by an ultrasonic treatment, and then filtered. The filtrate was washed with hexane and passed through an ODS cartridge, and 20 μL of the elute was applied to an HPLC apparatus.

[2] = HPLC of excrement for gnetin C and glycosides (Test Example 7); settings: 14 weeks
Experimental: as §1

Molecule | Peaks in HPLC chromatogram of the excrement [1] | Fate in the intestinal tract ([2]; 0.5% in high-fat diet) | Peaks in HPLC chromatogram of the excrement ([2]; 0.5% of substance in high-fat diet, mice excrement)
Oc1ccc(/C=C/c2cc(O)c3c(c2)OC(c2ccc(O)cc2)C3c2cc(O)cc(O)c2)cc1 (stereo not drawn) [gnetin C] | peaks of gnetin C and monoglucuronic acid conjugate of gnetin C |  | 
gnemonoside A |  | hydrolyzed and changed to gnetin C in the intestinal tract | peaks of gnetin C and the monoglucuronide, but not a peak of gnemonoside A, C, or D
